Measured values published in US5968920A, “Compounds having a benzisoselen-azoline and -azine structure, method for preparing same and therapeutic uses thereof” (Oxis Isle of Man, Limited, priority 1994, dated 1999).

Key:
[1] = Glutathione peroxidase activity, t-BuOOH as hydroperoxide; assay type: biochemical; details: compound 20 μM, pH = 7.3, 37° C., [GSH] = 2 mM
Procedure: (§1) To 1.5 ml of HEPES buffer, 50 mM, pH=7.3, containing 0.2 mM of DTPA, 0.144 mM of NADPH, 2.2 mM of reduced glutathione and 1.1 U/ml of glutathione disulfide reductase, pre-equilibrated for 2 minutes at 37° C., 100 μl of an ethanolic mother solution of the compound to be tested or 100 μl of absolute ethanol (blank) was added. Each compound was tested at a final concentration of 20 μM.
(§2) Subsequently, 50 μl of the following was added:
tertiobutyl hydroperoxide (t-BuOOH), 6.6 mM in ultrapure water;
(§3) or the hydroperoxide of linoleic acid (18:2-OOH) prepared using soya lipoxygenase (see M. O. Funk et al., Lipids, (1976), 11, pp 113-117), 3.3 mM in a water/methanol mixture, 85/15 (V/V). The glutathione peroxidase activity was measured at 37° C. by measuring the reduction in absorbance at 340 nm over 5 minutes. The initial enzymatic rate or activity was proportional to the slope of the plot of absorbance against time.
(§4) They are expressed in nmoles of hydroperoxide reduced per minute.

[2] = Glutathione peroxidase activity, hydrogen peroxide; assay type: biochemical; details: compound 20 μM, pH = 7.3, 37° C., [GSH] = 2 mM
Procedure: as §1, §2
or hydrogen peroxide (H2 O2), 1.6 mM in ultrapure water;
as §3, §4

endothelial cells [3] = assay: Protection of endothelial cells against hydrogen peroxide (NO production after bradykinin); assay type: cell-based; details: Homo sapiens, Endothelial cell; compound 1 μM; hydrogen peroxide 100 μM; bradykinin 100 nM; read-out: recovery of the normal response to bradykinin (NO production)
Procedure: (§5) Human endothelial cells were cultivated at 37° C. in 6-hole plates or Petri dishes (35 mm diameter) in an atmosphere of saturated humidity constituted by a gaseous mixture of 95% air and 5% of CO2. The culture medium was constituted by a M 199 medium, pH=7.4, containing 20% of foetal calf serum, 2 mM of L-glutamine, 100 U/ml of penicillin and 100 μg/ml of streptomycin.
When the cells were confluent, they were incubated in the presence or absence (control) of a compound with general structure I in culture medium at a concentration of between 1 and 10 μM, all other conditions being the same. After washing the cells three successive times with a PBS buffer, they were incubated in the presence or absence (control) of hydrogen peroxide, 500 or 100 μM, in the reaction medium. The cells were then washed three times with PBS buffer. They were then stained using the May-Grunwald/Giemsa procedure which caused the nucleus to stain purple and the cytoplasm, light violet, or they were used to measure their ability to produce nitric oxide NO. (EDRF). The production of NO. by endothelial cells was made using a NO. electrode, after stimulation with bradykinin, 100 nM, using the procedure described by H. Tsukahara et al., (Biochem. and Biophys. Res. Comm., (1993), 193, pp 722-729).
Treatment with 100 μM hydrogen peroxide had no significant effect on cellular density. […]

endothelial cells [4] = assay: Absence of toxicity in a culture of endothelial cells in vitro (MTT); assay type: cell-based, human; details: no more than 10 μM, 24 or 48 hours
Procedure: Human endothelial cells were cultivated under the same conditions as those described for Example 18, in 96-hole plates.
When the cells were near confluence, they were incubated or not (control) for 24 or 48 hours in the presence of BXT-51056 or BXT-51072 incorporated into the culture medium at a concentration of no more than 10 μM. After 24 or 48 hours, the cells were rinsed three times with a PBS buffer and the viability of the cells was measured using the bromide of 3-(4,5-dimethylthiazol-2-yl)-2,5-diphenyl-2H-tetrazolium (MTT).

[5] = Glutathione peroxidase activity, linoleic acid hydroperoxide; assay type: biochemical; details: compound 20 μM, pH = 7.3, 37° C., [GSH] = 2 mM
Procedure: as §1, §2, §3, §4

interleukin 8 (IL-8) = assay: Endothelial production of interleukin 8 induced by TNF-α; assay type: cell-based, human; details: 4 h
Procedure: (§6) Human endothelial cells were cultivated under the same conditions as those described for Example 18.
When the cells were near confluence, they were incubated for one hour in the presence or absence of the following compounds: BXT-51072, BXT-51077 or ebselen. Each of these compounds was incorporated into culture medium containing 2% of foetal calf serum at 10 μM, all other conditions being the same. […] After four hours of incubation, the interleukin 8 (IL-8) in the culture medium was measured.

[6] = in the presence of excess glutathione GSH; cited from earlier work
[7] = prior art, Wendel 1984; Mercurio and Combs 1986; cited from earlier work
endothelial cells [8] = assay: Viability of endothelial cells subjected to linoleic acid hydroperoxide (MTT); assay type: cell-based, human; details: compound 4 μM, 1 h; 18:2-OOH 50 μM, 2 h; MTT after about twenty hours
Procedure: as §5, with “multi-hole” for “6-hole”, “dishes” for “dishes (35 mm diameter)”, “penicillin,” for “penicillin and”, “streptomycin and 1% by volume of a medium supplement containing heparin and a cell growth factor.” for “streptomycin.”
When the cells were near confluence, they were incubated for one hour in the presence or absence of one of the following compounds: BXT-51056, BXT-51072, BXT-51077, or ebelsen. Each of these compounds was incorporated at 4 μM into culture medium containing 2% of foetal calf serum, all other conditions being the same.
After washing the cells three successive times with a PBS buffer, they were incubated in the presence or absence (control) of linoleic acid hydroperoxide (18:2-OOH), 50 μM, in the culture medium defined above. […] After about twenty hours, the viability of the cells was determined by measurement using the bromide of 3-(4,5-dimethylthiazol-2-yl)-2,5-diphenyl-2H-tetrazolium (MTT).
The results are shown in FIG. 1, expressed as the survival percentage with respect to the control and where the reference is shown by the black rectangle.

endothelial cells [9] = assay: Adhesion of PMN to endothelial cells induced by TNF-α (myeloperoxidase); assay type: cell-based, human; details: compound 10 μM vs pentoxifylline 50 μM; TNF-α 1 ng/ml
Procedure: as §6
(§7) When the cells were near confluence, they were incubated for one hour in the presence or absence of the following compounds: BXT-51072, BXT-51077 or pentoxifylline. Compounds BXT-51072 and BXT-51077, each at 10 μM, and the pentoxifylline, at 50 μM, were incorporated in culture medium containing 2% of foetal calf serum, all other conditions being the same. […] Myeloperoxidase (MPO), an enzyme specifically contained in PMNs, was then measured in the cell lysates obtained to evaluate adhesion of the PMNs on the endothelial cells. The von Willebrandt factor (vWf) liberated in the culture medium by the endothelial cells was measured after three and a half hours of incubation, as a label of the changes in the cells.
(§8) Incubation of the endothelial cells in the presence of PMN and TNF-α led to a very significant increase in the quantity of MPO and vWf with respect to the respective controls (PMN alone, and endothelial cells alone respectively), meaning the adhesion of activated PMNs to the endothelial cells and changes in the latter.
(§9) They are expressed as the percentage inhibition by referring the MPO and vWf measurements to the respective concentrations of MPO and vWf determined when the endothelial cells were incubated with TNF-α and PMNs.

endothelial cells [10] = assay: Endothelial changes induced by PMN and TNF-α (von Willebrandt factor release); assay type: cell-based, human; details: BXT compounds 10 μM, pentoxifylline 50 μM; TNF-α 1 ng/ml; 3.5 h
Procedure: as §6, §7, §8, §9

[11] = test system: von Willebrandt factor (vWf); assay: Protection of endothelial cells against interleukin 1 (von Willebrandt factor release); assay type: cell-based; details: Homo sapiens, Endothelial cell, 4 h, read-out: inhibition of increase in vWf liberation induced by IL-1
Procedure: as §6
When the cells were near confluence, they were incubated for one hour in the presence or absence of the following compounds: BXT-51072, BXT-51077, each of these compounds being at 10 μM in culture medium containing 2% of foetal calf serum , all other conditions being the same. The cells were then washed three times with a PBS buffer. The cells which had not been pretreated by a compound were incubated in the presence or absence (control) of interleukin 1α (IL-1α), at 50 U/ml, in the same culture medium. […] After four hours of incubation, the von Willebrandt factor (vWf) in the culture medium was measured.

CC1(C)N[Se]c2ccc([N+](=O)[O-])cc21 [BXT-51075, 3,3'-dimethyl-5-nitro-benzisoselenazoline]
Glutathione peroxidase activity, t--BuOOH [1]: 3,2 nmoles of hydroperoxide reduced/min | Glutathione peroxidase activity, H2 O2 [2]: 5,9 nmoles of hydroperoxide reduced/min

CC1(C)N[Se]c2ccccc21 [BXT-51056, 3,3-dimethyl-benzisoselenazoline]
activity at 1 µM (endothelial cells [3]): > 80% | toxicity to endothelial cells (endothelial cells [4]): not toxic to endothelial cells

CCN1CC(C)(C)c2ccccc2[Se]1 [BXT-51078, 4,4-dimethyl-2-ethyl-benzisoselenazine]
Glutathione peroxidase activity, t--BuOOH [1]: 16.5 nmoles of hydroperoxide reduced/min

CC1(C)N[Se](=O)c2ccccc21 (centres unmarked) [BXT-51059]
Glutathione peroxidase activity, t--BuOOH [1]: 0.2 nmoles of hydroperoxide reduced/min | Glutathione peroxidase activity, H2 O2 [2]: 0.1 nmoles of hydroperoxide reduced/min | Glutathione peroxidase activity, 18:2-OOH [5]: 0.8 nmoles of hydroperoxide reduced/min

O=c1c2ccccc2[se]n1-c1ccccc1 [ebselen, 2-phenyl-3-one-benzisoselenazoline(2H)]
inhibition of IL-8 production induced by TNF-α (in words) (interleukin 8 (IL-8); compound 10 μM, TNF-α 0.1, 1 or 10 ng/ml): no inhibiting effect | water solubility of the derivative produced with excess glutathione GSH [6]: only very slightly soluble in water | toxic effect [7]: do not appear to have a major toxic effect

COc1ccc2c(c1)C(C)(C)CN[Se]2 [BXT-51077, 4,4-dimethyl-6-methoxy-benzisoselenazine]
Glutathione peroxidase activity, t--BuOOH [1]: 35.4 nmoles of hydroperoxide reduced/min | protection of the cells from death induced by 18:2-OOH (endothelial cells [8]): significantly protected the cells from death | inhibition of the adhesion of PMN induced by TNF-α (MPO) (endothelial cells [9]): inhibit the adhesion of PMN induced by TNF-α, much more effectively than pentoxifylline | protection of endothelial cells against the deleterious effects of activated PMNs (vWf) (endothelial cells [10]): protect endothelial cells against the deleterious effects of activated PMNs | inhibition at 10 µM (interleukin 8 (IL-8); Homo sapiens, read-out: inhibition of IL-8 production induced by TNF-α): ≥ 70% | inhibition at 10 µM [11]: > 70%
